{"source": "patent US12089593B2", "about": "“Compositions and methods for treating and preventing dust mite infestation” (EVOLVA SA, priority 2016, dated 2024)", "tested_on": "Dust mite Dermataphagoides farinae", "experiment": "Laboratory bioassay: dust mite susceptibility to nootkatone on treated filter paper envelopes", "format": "in vivo", "excerpt": "This example describes a laboratory bioassay in which groups of dust mites were exposed to a solution of the product to determine dust mite susceptibility to nootkatone.\nOne milliliter of a 1% (wt/vol) nootkatone in ethanol formulation was applied directly to 9 cm discs of filter paper by pipette. The filter papers were allowed to dry completely and were cut to the appropriate size prior to the start of the test. Pure ethanol was used as a control.\nTreated and untreated (ethanol-treated only) filter papers were cut into 2.5 inch (6.35 cm) squares and folded into envelopes to serve as containers for the test. Five replicates of 35 dust mites were tested per treatment. After the mites were placed inside, the openings were sealed using clips so that the mites could not escape.\nDust mites were only observed after 72 hours post-introduction to the test containers, due to their small size, and the likelihood of loss of mites during handling. […] Results", "key": {"[1]": {"conditions": "72 hours post introduction, filter paper treated with 1 mL of 1% (wt/vol) nootkatone in ethanol, dried, five replicates of 35 adult mixed-sex mites"}}, "data": [{"smiles": "C=C(C)[C@@H]1CCC2=CC(=O)C[C@@H](C)[C@]2(C)C1", "note": "[Nootkatone, nootkatone]", "values": [{"measurement": "state of mites after exposure (175 total mites)", "setting": "72 hours of exposure to filter papers treated with 1% nootkatone in ethanol", "result": "all dead"}, {"measurement": "Means Affected", "setting": "[1]", "result": 100.0, "unit": "%"}, {"measurement": "Means Dead", "setting": "[1]", "result": 100.0, "unit": "%"}, {"measurement": "Means KD (knockdown)", "setting": "[1]", "result": 0.0, "unit": "%"}, {"measurement": "mortality rates of dust mites", "setting": "dust mites exposed to low concentrations of nootkatone", "result": 100, "unit": "%"}]}]}
